{
  "source": "patent US6040149A",
  "about": "“Assay for identifying agents which act on the ceramide-activated protein kinase, kinase suppressor of ras, and methods of using said agents” (priority 1997, dated 2000)",
  "key": {"CAP kinase": {"tested_on": "CAP kinase", "assay": "Phosphorylation of Raf-1 peptides by CAP kinase", "format": "biochemical, bovine (brain)"}, "[1]": {"tested_on": "ceramide-activated protein kinase", "assay": "CAP kinase activation in HL-60 cells (renaturation and autophosphorylation)", "format": "cell-based, human (HL-60 cells)", "protocol": "Stimulation of ceramide-activated protein (CAP) kinase by lipid A. On the day of an experiment, HL-60 cells were resuspended (1×10^6 cells ml^-1) into serum-free RPMI 1640 containing 5 μg ml^-1 insulin and transferrin. After 2 h, cells were stimulated with lipid A (Escherichia Coli) or diluent (DMSO, <0.01%). Ceramide-activated protein kinase contained within microsomal membranes was detected by renaturation and autophosphorylation. Briefly, membrane proteins (200 μg per lane) were separated by SDS-PAGE (10%), and the gel was washed with two changes of buffer (50 mM Tris, pH 7.4, 5 mM 2-mercaptoethanol) containing 20% 2-propanol at room temperature for 1 h, and once in buffer without 2-propanol for 1 h. Denaturation was accomplished by incubation of the gel in two changes of 6M guanidinium HCl in wash buffer for 1 h each. Renaturation was accomplished by incubation of the gel overnight at 4° C. in wash buffer containing 0.04% Tween-20. The gel was then equilibrated for 10 min at room temperature in kinase reaction mixture (25 mM HEPES, pH 7.4, 10 mM MgCl2, 0.5 mM EGTA and 5 mM NaF) and [γ-^32 p] ATP (50 μM final concentration; 1000 dpm pmol^-1) was added. Autophosphorylation was terminated by removal of the reaction mixture. The gel was washed with 6 changes of buffer (5% trichloroacetic acid, 1% sodium pyrophosphate) for 2 h and subjected to autoradiography. Top panel--Time course of lipid A activation. Bottom panel--Dose response at 5 minutes of lipid A stimulation. Autoradiograms represent one of three similar studies in both panels A and B.\nOn the day of an experiment, cells were resuspended (1×10^6 cells ml^-1) into serum-free RPMI 1640 containing 5 μg ml^-1 insulin and transferrin. After 2 h, cells were stimulated with lipid A or diluent (DMSO, <0.01% ). […] The postnuclear supernate was centrifuged at 200,000×g for 30 min and microsomal membranes were resuspended ([…]) into homogenizing buffer. Ceramide-activated protein kinase was detected by renaturation and autophosphorylation. Briefly, membrane proteins (200 μg per lane) were separated by SDS-PAGE (10%), and the gel was washed with two changes of buffer (50 mM Tris, pH 7.4, 5 mM 2-mercaptoethanol) containing 20% 2-propanol at room temperature for 1 h, and once in buffer without 2-propanol for 1 h. Denaturation was accomplished by incubation of the gel in two changes of 6M guanidinium HCl in wash buffer for 1 h each. Renaturation was accomplished by incubation of the gel overnight at 4° C. in wash buffer containing 0.04% Tween-20. The gel was then equilibrated for 10 min at room temperature in kinase reaction mixture (25 mM HEPES, pH 7.4, 10 mM MgCl2, 0.5 mM EGTA and 5 mM NaF) and [γ-^32 P] ATP (50 μM final concentration; 1000 dpm pmol^-1. Autophosphorylation was terminated by removal of the reaction mixture. The gel was washed with 6 changes of buffer (5% trichloracetic acid, 1% sodium pyrophosphate) for 2 h and subjected to autoradiography.\nFor studies involving activation of ceramide-activated protein kinase by LPS, HL-60 cells (13×10^6 ml^-1) were handled as above, and LPS (Salmonella typhosa, 50 ng ml^-1), recombinant LBP (1.7 μg ml^-1) or both LPS and LBP were added for the times indicated. Isolation of microsomal membranes and autophosphorylation of ceramide-activated protein kinase were performed as above."}, "[2]": {"tested_on": "ceramide-activated protein kinase", "assay": "Ceramide-activated protein kinase activity toward MBP after HL-60 cell treatment", "format": "cell-based, human (HL-60 cells)", "protocol": "Membrane proteins (200 μg) from treated and untreated cells were subjected to SDS-PAGE and kinase activity was renatured as above. Autophosphorylation was allowed to proceed for 10 min and the gel was washed for 20 min with four changes of 50 mM HEPES buffer, pH 7.4. Gel slices were then excised from regions corresponding to 100-110 KDa, crushed, and incubated for 1 h with 10μ MBP (5 mg ml^-1) and 40 μl kinase reaction mixture in the presence of [γ-^32 P]ATP (50 μM final concentration). Reactions were terminated by addition of 10 μl Laemmli buffer, boiling for 3 min, and centrifugation of gel particles. The supernates were subjected to electrophoresis and autoradiography.\nSince prior studies correlated enhanced autophosphorylation of ceramide-activated protein kinase with increased kinase activity toward exogenous substrate, the effect of kinase activity toward MBP was examined after treatment of HL-60 cells with lipid A. For these studies, gel slices corresponding to ceramide-activated protein kinase were subjected to autophosphorylation for 10 min in buffer containing ATP (50 μM final concentration), and then were washed and incubated with MBP in a kinase reaction mixture containing [γ-^32 P]ATP [119]. After termination of reactions, samples were subjected electrophoresis and visualized by autoradiography. […] Enhancement of MBP phosphorylation was detectable at 0.5 min of lipid A treatment and maximal at 15 min."}, "KSR": {"biological_target": "T1, KSR (Mus musculus, UniProt Q61097)", "T1 sequence (Q61097 1-873)": "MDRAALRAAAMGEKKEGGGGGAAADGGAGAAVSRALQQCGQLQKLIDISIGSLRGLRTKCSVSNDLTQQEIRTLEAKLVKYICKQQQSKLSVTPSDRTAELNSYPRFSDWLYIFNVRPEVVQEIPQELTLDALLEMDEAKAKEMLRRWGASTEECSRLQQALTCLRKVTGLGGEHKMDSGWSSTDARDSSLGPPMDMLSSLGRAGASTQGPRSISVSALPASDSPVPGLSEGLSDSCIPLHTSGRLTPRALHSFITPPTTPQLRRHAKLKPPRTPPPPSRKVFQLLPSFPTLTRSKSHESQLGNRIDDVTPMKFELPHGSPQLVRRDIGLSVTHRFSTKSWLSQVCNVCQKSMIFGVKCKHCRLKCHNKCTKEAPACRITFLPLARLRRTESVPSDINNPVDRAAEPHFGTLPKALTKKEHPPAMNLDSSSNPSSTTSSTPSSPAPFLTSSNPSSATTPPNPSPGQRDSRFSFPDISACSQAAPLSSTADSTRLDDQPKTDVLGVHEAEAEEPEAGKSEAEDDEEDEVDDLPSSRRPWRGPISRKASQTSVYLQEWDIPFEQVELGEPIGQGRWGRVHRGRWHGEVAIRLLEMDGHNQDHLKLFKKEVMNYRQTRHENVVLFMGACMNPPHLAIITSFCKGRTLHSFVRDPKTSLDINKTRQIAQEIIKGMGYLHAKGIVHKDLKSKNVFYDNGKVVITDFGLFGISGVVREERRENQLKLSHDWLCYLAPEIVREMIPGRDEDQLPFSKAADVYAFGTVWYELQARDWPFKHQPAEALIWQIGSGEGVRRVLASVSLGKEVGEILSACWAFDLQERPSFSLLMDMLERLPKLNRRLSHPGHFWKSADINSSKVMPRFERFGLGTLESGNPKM", "assay": "KSR activity toward Raf-1 peptides in vitro", "format": "biochemical, mouse (KSR immunoprecipitated from COS-7 cells)", "set-up": "Raf-1 peptides as substrate", "protocol": "The wild type peptide contains eight potential phosphorylation sites (shown in bold). Substitution of alanines and glycines for serines and threonines generated one peptide (TTLP-peptide) containing only two potential phosphorylation sites (Thr^268,269) and another peptide (AALP-peptide) with no potential phosphorylation sites.\nFIG. 28A--Flag-tagged KSR was immunoprecipitated from 0.2 mg COS-7 lysate, and assayed with TTLP- or AALP-peptides in the presence of 30 nM ceramide (Avanti) or diluent (DMSO). Background counts per minute (cpm) derived from samples incubated with the AALP-peptide which contains no phosphorylation sites were subtracted from all points. Background cpm always represented less than 25% of the untreated total.\nFIG. 28B--Flag-tagged KSR immunoprecipitated from 0.2 mg COS-7 lysate was assayed with TTLP- or AALP-peptides in the presence of ceramide or diluent for 45 min as described in FIG. 7A.\nFIG. 28C--Flag-tagged KSR was immunoprecipitated from 0.15 mg COS-7 lysate and assayed with TTLP- or AALP-peptides for 20 min in the presence of 30 nM of the indicated lipid second messengers as described in FIG. 28A (AA: arachidonic acid; LPA: lyso phosphatidic acid; PMA: phorbol 12-myristate 13-acetate; DAG: 1,2-diacylglycerol).\nKSR-bound beads were incubated with reaction buffer B plus 10 mM MnCl2, 5 μM ATP and [γ-^32 P]ATP at 22° C. for the period of time indicated in the presence of 0.3 mM synthetic Raf-peptide or substrate peptides specific for other Ser/Thr protein kinases. […] (SEQ ID NO.3). Substitution of glycines and alanines for serines and threonines generated one peptide (termed TTLP-peptide) containing only two potential phosphorylation sites at Thr^268,269 (in bold), […] (SEQ ID NO. 24), and another peptide (termed AALP-peptide; SEQ ID No.6) with no potential phosphorylation sites, […] (SEQ ID No.25). The amino acid sequences of substrate peptides specific for other protein kinases (Joseph et al., 1993) are: […] (SEQ ID NO.26) (PKA); […] (SEQ ID NO.27) (S6 kinase); […] (SEQ ID NO.28)(CK II); […] (SEQ ID NO.29) (CaM kinase II); and […] (SEQ ID NO.30) (PKC). […] Substrate peptides for PKA and PKC were from Sigma (St. Louis, Mo.). The reaction was stopped by addition of a stop solution containing 0.5 M ATP in 90% formic acid. The beads were removed by centrifugation at 5000×g for 2 min and the supernatant was loaded on P81 Whatman filter paper. The filter was air dried and washed in 4 mM Na2 H2 P2 O7, 1 mM acetic acid for one hour. The filter was baked at 90° C. for 10 min and quantified by Cerenkov counting using a Beckman LS 5000TD scintillation counter. In some experiments, samples were separated by C18 reverse-phase chromatography on HPLC (Mathias et al., 1991) to verify the results of the filter assay. Virtually identical results were obtained with both methods."}},
  "data": [
    {"substance": "RQRSTSTPNVHMVSAALPVDSRMIE [AALP (SEQ ID NO: 6)]", "values": [
      {"measurement": "phosphorylation of Raf-1 peptide by CAP kinase", "setting": "CAP kinase", "result": "failed to phosphorylate"}
    ]},
    {"substance": "lipid A", "values": [
      {"measurement": "maximal activation of ceramide-activated protein kinase", "setting": "[1]; 500 nM lipid A, of control", "result": 5, "unit": "fold"},
      {"measurement": "earliest detection of increased autophosphorylation", "setting": "[1]; early kinetics studies", "result": 30, "unit": "s"},
      {"measurement": "concentration of maximal effect", "setting": "[1]; lipid A", "result": 500, "unit": "nM"},
      {"measurement": "lowest effective concentration", "setting": "[1]; lipid A", "result": 10, "unit": "nM"},
      {"measurement": "duration of enhanced autophosphorylation", "setting": "[1]; lipid A 5 μM", "result": 60, "unit": "min"},
      {"measurement": "enhancement of autophosphorylation detected at", "setting": "[1]; lipid A 5 μM", "result": 5, "unit": "min"},
      {"measurement": "onset of enhanced MBP phosphorylation", "setting": "[2]; lipid A", "result": 0.5, "unit": "min"},
      {"measurement": "time of maximal MBP phosphorylation", "setting": "[2]; lipid A", "result": 15, "unit": "min"},
      {"measurement": "enhancement of MBP phosphorylation", "setting": "[2]; lipid A-treated HL-60 cells", "result": 5, "unit": "fold"}
    ]},
    {"substance": "RQRSTSTPNVHMVSTTLPVDSRMIE [wild type Raf-peptide]", "values": [
      {"measurement": "phosphorylation of peptide by KSR", "setting": "KSR", "result": "phosphorylated to the same extent"},
      {"measurement": "phosphorylation of Raf-1 peptide by CAP kinase", "setting": "CAP kinase", "result": "phosphorylated"}
    ]}
  ]
}
